Here are results for 12 compounds from patent US20250084033A1, “METHOD OF PROMOTING PERACETIC ACID DECOMPOSITION USING METAL COMPOUND, AND METHOD OF CULTURING MICROORGANISMS USING SAME” (N-CELL CO.,LTD, priority 2022, published 2025).

Where two headings read alike, the source gives them in different places.

In assay [1] the test system is Euglena gracilis. Conditions: for absorbance of the Euglena gracilis culture solution: 680 nm; for effect on growth of Euglena gracilis (in words): acetic acid or sodium acetate 0.05-0.25% (w/v) in nutrient medium. The protocol:
A nutrient medium for the cultivation of Euglena gracilis (prepared with triple-distilled water, KH2PO4, citrate, MgSO4·3H2O, vitamin B1, vitamin B6, vitamin B12, vitamin H, yeast extract, peptone, and dextrose) was autoclaved at 121° C. for 15 minutes. Sodium acetate (CH3COONa) was then added to the prepared nutrient medium at a concentration of 0.05% (w/v), and an inoculum of Euglena gracilis (KCTC AG40099) was introduced. The culture was incubated at 130 rpm, 28° C., and under light conditions of 100 μE photons/m^2/s. Growth was measured by monitoring absorbance at a wavelength of 680 nm.
The experiment was conducted in the same manner as in Example 11, except that acetic acid was added instead of sodium acetate.
The experiment was conducted in the same manner as in Comparative Example 2,except that acetic acid was added to the prepared nutrient medium at concentrations of 0.1% (w/v) (Comparative Example 3), 0.15% (w/v) (Comparative Example 4), 0.2% (w/v) (Comparative Example 5), and 0.25% (w/v) (Comparative Example 6), instead of sodium acetate.

The subject of assay [2] is Euglena gracilis. The experiment in a line: Growth of Euglena gracilis in peracetic acid-treated medium with sodium bicarbonate (absorbance 680 nm). Format: cell-based. Conditions: PAA 0.05% (w/v) with or without sodium bicarbonate 0.05-0.3% (w/v).
Experimental: The growth of Euglena was measured by monitoring absorbance at a wavelength of 680 nm.
Setting [3] is: Table 3, acetic acid added, cultivation time 0 Day.
[4] abbreviates: Table 3, acetic acid added, cultivation time 1 Day.
[5] abbreviates: Table 4, sodium acetate added, cultivation time 0 Day.
Setting [6] is: Table 4, sodium acetate added, cultivation time 1 Day.
Where [7] appears, read: Table 4, sodium acetate added, cultivation time 2 Days.
Setting [8] is: Table 4, sodium acetate added, cultivation time 4 Days.
[9] abbreviates: Table 4, sodium acetate added, cultivation time 5 Days.

In the case of `CC(=O)O` [Comparative Example 3, acetic acid], the “absorbance of the Euglena gracilis culture solution” value (shortened to “absorbance”) came out at 1.8372 AU with Euglena gracilis [1] (setting [3]) and 1.712 AU in the assay on Euglena gracilis [1] (setting [4]).

Consider `CC(=O)[O-].[Na+]` [Example 12, sodium acetate], for which the “absorbance” value turned out to be 1.316 AU with Euglena gracilis [1] (setting [5]); 2.1825 AU in the assay on Euglena gracilis [1] (setting [6]); 3.969 AU in the assay on Euglena gracilis [1] (setting [7]); 7.739 AU in the assay on Euglena gracilis [1] (setting [8]); 8.442 AU with Euglena gracilis [1] (setting [9]).

In the case of `CC(=O)O` [Comparative Example 4, acetic acid], the “absorbance” value turned out to be 1.831 AU with Euglena gracilis [1] (setting [3]) and 1.598 AU with Euglena gracilis [1] (setting [4]).

For `CC(=O)O` [Comparative Example 5, acetic acid], the “absorbance” value was determined as 1.686 AU with Euglena gracilis [1] (setting [3]) and 1.5025 AU with Euglena gracilis [1] (setting [4]).

With `CC(=O)O` [Comparative Example 2, acetic acid], the “absorbance” value with Euglena gracilis [1] (setting [3]) is 1.3738 AU; in the assay on Euglena gracilis [1] (setting [4]) it was 2.1945 AU; in the assay on Euglena gracilis [1] (Table 3, acetic acid added, cultivation time 2 Days), 3.929 AU; in the assay on Euglena gracilis [1] (Table 3, acetic acid added, cultivation time 4 Days), 10.34 AU; in the assay with Euglena gracilis [1] (Table 3, acetic acid added, cultivation time 5 Days), 11.063 AU. The “effect on growth of Euglena gracilis (in words)” value in the assay on Euglena gracilis [1] is “no inhibitory effect”.

As to `CC(=O)[O-].[Na+]` [Example 11, sodium acetate], the “absorbance” value in the assay on Euglena gracilis [1] (setting [5]) was 1.33 AU; with Euglena gracilis [1] (setting [6]), 2.2345 AU; in the assay on Euglena gracilis [1] (setting [7]), 3.898 AU; in the assay on Euglena gracilis [1] (setting [8]), 8.511 AU; in the assay on Euglena gracilis [1] (setting [9]), 9.852 AU.

In the case of `CC(=O)[O-].[Na+]` [Example 13, sodium acetate], the “absorbance” value came out at 1.3882 AU in the assay on Euglena gracilis [1] (setting [5]); 2.1605 AU in the assay with Euglena gracilis [1] (setting [6]); 3.861 AU with Euglena gracilis [1] (setting [7]); 7.52 AU in the assay with Euglena gracilis [1] (setting [8]); 8.561 AU in the assay with Euglena gracilis [1] (setting [9]).

For the compound `CC(=O)[O-].[Na+]` [Example 15, sodium acetate], the “absorbance” value in the assay with Euglena gracilis [1] (setting [5]) was found to be 1.4034 AU; in the assay with Euglena gracilis [1] (setting [6]), 2.1945 AU; in the assay on Euglena gracilis [1] (setting [7]), 3.803 AU; in the assay with Euglena gracilis [1] (setting [8]) it was 7.369 AU; in the assay on Euglena gracilis [1] (setting [9]), 8.405 AU.

As to `O=C([O-])O.[Na+]` [sodium bicarbonate], the “growth of Euglena gracilis (in words)” value in the assay on Euglena gracilis [2] is listed as “does not specifically affect the growth of Euglena gracilis”.

Regarding `CC(=O)[O-].[Na+]` [Example 14, sodium acetate], the “absorbance” value was 1.3602 AU in the assay with Euglena gracilis [1] (setting [5]); 2.1565 AU in the assay on Euglena gracilis [1] (setting [6]); 3.709 AU with Euglena gracilis [1] (setting [7]); 7.624 AU in the assay on Euglena gracilis [1] (setting [8]); 8.665 AU in the assay on Euglena gracilis [1] (setting [9]).

Take `CC(=O)O` [Comparative Example 6, acetic acid]: the “absorbance” value in the assay on Euglena gracilis [1] (setting [3]) was determined as 1.7554 AU; in the assay with Euglena gracilis [1] (setting [4]), 1.5195 AU.

On to `CC(=O)[O-].[Na+]` [sodium acetate], for which, in the assay with Euglena gracilis [1], the “effect on growth of Euglena gracilis (in words)” value is recorded as “does not inhibit the growth of Euglena”.
